Experimental data as given in patent publication US10857105B2, “Compounds and compositions for intracellular delivery of therapeutic agents” (ModernaTX, Inc., priority 2017, dated 2020).

Legend:
[1] = Particle size and polydispersity index of nanoparticle compositions (Zetasizer Nano ZS); type: physicochemical
How it was run: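 Size and PDI measured by Zetasizer Nano ZS in 1×PBS (zeta potential in 15 mM PBS). Lipid nanoparticles contained test ionizable lipid:DSPC:cholesterol:PEG-DMG at 50:10:38.5:1.5 mol % with N1-methyl-pseudouridine mRNA encoding luciferase or hEPO.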

[2] = Encapsulation efficiency of RNA in nanoparticle compositions (RIBOGREEN assay); type: physicochemical
How it was run: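 Lipid nanoparticles (ionisable lipid:DSPC:cholesterol:PEG-DMG 50:10:38.5:1.5 mol %) carrying N1-methylpseudouridine luciferase or hEPO mRNA diluted to about 5 μg/mL in TE, pH 7.5, with or without 2% Triton X-100, 15 min at 37° C. RiboGreen fluorescence (ex ~480, em ~520 nm) blank-subtracted; free RNA = intact/disrupted signal.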

luciferase (Luc) mRNA = assay: Luciferase expression (whole body bioluminescence) after intravenous administration to mice; type: in vivo; settings: for Novel lipid/MC3 expression ratio, i.v.: intravenous, luciferase, 6 hr. time point, relative to MC3 formulation
Method: In order to monitor how effectively various nanoparticle compositions deliver therapeutic and/or prophylactics to targeted cells, different nanparticle compositions including a particular therapeutic and/or prophylactic (for example, a modified or naturally occurring RNA such as an mRNA) are prepared and administered to rodent populations. Mice are intravenously, intramuscularly, intraarterially, or intratumorally administered a single dose including a nanoparticle composition with a formulation such as those provided in Example 3. In some instances, mice may be made to inhale doses. Dose sizes may range from 0.001 mg/kg to 10 mg/kg, where 10 mg/kg describes a dose including 10 mg of a therapeutic and/or, prophylactic in a nanoparticle composition for each 1 kg of body mass of the mouse. A control composition including PBS may also be employed.
Upon administration of nanoparticle compositions to mice, dose delivery profiles, dose responses, and toxicity of particular formulations and doses thereof can be measured by enzyme-linked immunosorbent assays (ELISA), bioluminescent imaging, or other methods. For nanoparticle compositions including mRNA, time courses of protein expression can also be evaluated. Samples collected from the rodents for evaluation may include blood, sera, and tissue (for example, muscle tissue from the site of an intramuscular injection and internal tissue); sample collection may involve sacrifice of the animals.
The efficacy of the nanoparticle compositions presented in Table 1A was evaluated with a bioluminescence study. Formulations were administered intravenously to mice (n=6) at a dosage of 0.5 mg/kg (mpk) and bioluminescence measured at 3, 6, and 24 hour time points. The standard MC3 formulation and, in some instances, a control (e.g., a PBS control) were evaluated for comparison. […] In general, flux decreased as time progressed to less than 10% of the initial flux.
The total flux (measured by area under the curve, AUC) induced by administration of a formulation including a given lipid relative to that induced by administration of a formulation including MC3 was also measured for several lipids.

modified luciferase = assay: Luciferase expression in liver, lung, spleen and femur 6 hours after intravenous administration to mice; type: in vivo; settings: 6 hours after intravenous 0.5 mpk, mice
How it was run: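 Nanoparticle formulations of the modified luciferase were given intravenously to mice (n=3) at 0.5 mpk. Bioluminescence was measured after 6 hours as total light flux. Standard MC3 formulation and PBS run as controls.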

[3] = Table 1A, lipid:DSPC:cholesterol:PEG-DMG 50:10:38.5:1.5 mol %
[4] = Table 1D, compositions for subcutaneous administration, # formulated with hEPO mRNA
[5] = intravenous administration (Table 3D)
[6] = Table 1B, formulated with hEPO mRNA

| Compound | Size [1, 3] | Size [1, 4] | EE [2, 3] | Size [1, 6] | Size ([1]; Table 1E, compositions for subcutaneous administration) | EE [2, 6] | AUC (luciferase (Luc) mRNA; [5]) | Total Flux, Liver (modified luciferase) | Total Flux, Lung (modified luciferase) | Total Flux, Spleen (modified luciferase) | AUC (luciferase (Luc) mRNA; i.v. administration (Table 3C)) | Novel lipid/MC3 expression ratio, i.v. (luciferase (Luc) mRNA) |
| --- | --- | --- | --- | --- | --- | --- | --- | --- | --- | --- | --- | --- |
| CCCCCCCCCC(=O)OCCCCCCCN(CCO)CCCCCCCC(=O)OC(CCCCCCCC)CCCCCCCC [Compound 96, 7-((8-(Heptadecan-9-yloxy)-8-oxooctyl)(2-hydroxyethyl)amino)heptyl decanoate] | 120.5 nm | 82.6 nm | 79.04% | – | – | – | 1.209E+012 p/s*h | 1.56E+10 | 3.43E+07 | 3.39E+08 | – | – |
| CCCCCCCCCOC(=O)CCCCCCCN(CCCCCCCC(=O)OC(CCCCCCCC)CCCCCCCC)CCN1CCOCC1 [Compound 103, Heptadecan-9-yl 8-((2-morpholinoethyl)(8-(nonyloxy)-8-oxooctyl)amino)octanoate] | 78.8 nm | – | 90.77% | – | – | – | – | 8.48E+07 | 2.06E+05 | 2.65E+06 | 2.4E+10 h*p/s | – |
| CCCCCCCCOP(=O)(OCCCCCCCC)OCCCCCCCN(CCO)CCCCCCCC(=O)OC(C)CCCCCCCC (centres unmarked) [Compound 132, Decan-2-yl 8-((7-((bis(octyloxy)phosphoryl)oxy)heptyl)(2-hydroxyethyl)amino)octanoate] | – | – | 30.77% | – | – | – | – | 1.49E+08 | 1.39E+07 | 3.37E+08 | 1.75E+10 h*p/s | – |
| CCCCCCCCC(CCCCCC)C(=O)OCCCCCCCCCN(CCO)CCCCCCCCCOC(=O)C(CCCCCC)CCCCCCCC (centres unmarked) [Compound 133, ((2-Hydroxyethyl)azanediyl)bis(nonane-9,1-diyl) bis(2-hexyldecanoate)] | 66.0 nm | – | 91.48% | – | – | – | – | 2.94E+09 | 3.18E+06 | 1.77E+07 | 3.62E+11 h*p/s | – |
| CCCCCCCCCOC(=O)CCCCCCCN(CCO)CCCCCCCCCOC(=O)C(CCCCCC)CCCCCCCC (centres unmarked) [Compound 134, 9-((2-Hydroxyethyl)(8-(nonyloxy)-8-oxooctyl)amino)nonyl 2-hexyldecanoate] | 85.6 nm | – | 94.62% | – | – | – | – | 1.73E+09 | 2.82E+06 | 1.85E+07 | 3.43E+11 h*p/s | – |
| CCCCCCCCC(C)OC(=O)CCCCCCCN(CCO)CCCCCCCOC(=O)C(CCCCCCCC)CCCCCCCC (centres unmarked) [Compound 135, 7-((8-(Decan-2-yloxy)-8-oxooctyl)(2-hydroxyethyl)amino)heptyl 2-octyldecanoate] | 89.5 nm | – | 90.20% | – | – | – | – | 1.65E+10 | 2.71E+07 | 1.39E+08 | 1.25E+12 h*p/s | – |
| CCCCCCCCC(CCCCCCCC)OC(=O)CCCCCCCN(CCO)CCCCCCCC(=O)OCC(CCCCCCC)OC (centres unmarked) [Compound 148, Heptadecan-9-yl 8-((2-hydroxyethyl)(8-((2-methoxynonyl)oxy)-8-oxooctyl)amino)octanoate] | – | – | 25.49% | – | – | – | 4.965E+011 p/s*h | 4.39E+09 | 3.27E+07 | 2.71E+09 | – | – |
| CCCCCCCCC(CCCCCCCC)OC(=O)CCCCCCCN(C)CCCCCCCCCCCC(=O)OCCCCC [Compound 150, Pentyl 12-((8-(heptadecan-9-yloxy)-8-oxooctyl)(methyl)amino)dodecanoate] | 63.1 nm | – | 96.72% | – | – | – | 2.704E+011 p/s*h | 1.54E+09 | 2.20E+06 | 3.43E+07 | – | – |
| CCCCCCCCCC(=O)OCCCCCCCN(CCO)CCCCCCCOC(=O)C(CCCCCCCC)CCCCCCCC [Compound 151, 7-((7-(Decanoyloxy)heptyl)(2-hydroxyethyl)amino)heptyl 2-octyldecanoate] | 105.7 nm | 77.6 nm | 87.86% | – | – | – | 7.010E+011 p/s*h | 4.72E+09 | 9.20E+06 | 9.27E+07 | – | – |
| CCCCCCCCCOC(=O)CCCCCCCN(CCCCCCCC(=O)OC(CCCCCCCC)CCCCCCCC)CCOCCO [Compound 154, Heptadecan-9-yl 8-((2-(2-hydroxyethoxy)ethyl)(8-(nonyloxy)-8-oxooctyl)amino)octanoate] | 92.9 nm | – | 94.28% | – | – | – | 5.560E+010 p/s*h | 3.62E+08 | 2.89E+06 | 1.30E+07 | – | – |
| CCCCCCCCCOC(=O)CCCCCCCN(CCO)CCCCCCCC(=O)OC(C)(C)C [Compound 158, tert-Butyl 8-((2-hydroxyethyl)(8-(nonyloxy)-8-oxooctyl)amino)octanoate] | – | – | 35.70% | – | – | – | 1.211E+007 p/s*h | 1.99E+05 | 1.71E+04 | 1.17E+05 | – | – |

Second part, led by results:

| Size [1, 3] | Size [1, 4] | EE [2, 3] | Size [1, 6] | Size ([1]; Table 1E, compositions for subcutaneous administration) | EE [2, 6] | Compound | AUC (luciferase (Luc) mRNA; [5]) | Total Flux, Liver (modified luciferase) | Total Flux, Lung (modified luciferase) | Total Flux, Spleen (modified luciferase) | AUC (luciferase (Luc) mRNA; i.v. administration (Table 3C)) | Novel lipid/MC3 expression ratio, i.v. (luciferase (Luc) mRNA) |
| --- | --- | --- | --- | --- | --- | --- | --- | --- | --- | --- | --- | --- |
| 119 nm | – | 96% | 89.6 nm | 96.1 nm | 95.38% | CCCCCCCCCOC(=O)CCCCCCCN(CCCCCCCC(=O)OC(CCCCCCCC)CCCCCCCC)CCCNC(C)=O [Compound 108, Heptadecan-9-yl 8-((3-acetamidopropyl)(8-(nonyloxy)-8-oxooctyl)amino)octanoate] | – | 4.63E+08 | 9.81E+06 | 7.82E+08 | – | 0.40 |
| – | – | 89.15% | – | – | – | CCCCCCCCC(CCCCCCCC)OC(=O)CCCCCCCN(CCO)CCCCCCCC(=O)N(C)CCCCCCCC [Compound 145, Heptadecan-9-yl 8-((2-hydroxyethyl)(8-(methyl(octyl)amino)-8-oxooctyl)amino)octanoate] | – | 5.01E+08 | 1.36E+07 | 4.25E+08 | 8.1E+10 h*p/s | – |
| 97.0 nm | – | 91.94% | – | – | – | CCCCCCCCC(CCCCCCCC)OC(=O)CCCCCCCN(CCO)CCCCCC(=O)N(C)CCCCCCCC [Compound 146, Heptadecan-9-yl 8-((2-hydroxyethyl)(6-(methyl(octyl)amino)-6-oxohexyl)amino)octanoate] | – | 7.24E+06 | 3.88E+06 | 5.11E+07 | 1.04E+09 h*p/s | – |
| 99.5 nm | – | 88.31% | 111.9 nm | – | 91.0% | CCCCCCCCCOC(=O)CCCCCCCN(CCO)CCCCCCCCCC(=O)OC(CCCCCC)CCCCCC [Compound 147, Tridecan-7-yl 10-((2-hydroxyethyl)(8-(nonyloxy)-8-oxooctyl)amino)decanoate] | – | 5.24E+09 | 6.73E+06 | 8.57E+07 | 5.63E+11 h*p/s | – |
| – | – | 37.36% | – | – | – | CCCCCCCCC(CCCCCCCC)OC(=O)CCCCCCCN(CCO)CCCCCCCC(=O)OC(C)(C)C [Compound 155, tert-Butyl 8-((8-(heptadecan-9-yloxy)-8-oxooctyl)(2-hydroxyethyl)amino)octanoate] | 1.266E+011 p/s*h | 8.58E+08 | 1.00E+07 | 2.77E+08 | – | – |
| 104.2 nm | – | 94.7% | – | – | – | CCCCCCCCCOC(=O)CCCCCCCN(CCCCCCCC(=O)OC(CCCCCCCC)CCCCCCCC)CCCNC(=O)COC [Compound 178, Heptadecan-9-yl 8-((3-(2-methoxyacetamido)propyl)(8-(nonyloxy)-8-oxooctyl)amino)octanoate] | – | – | – | – | – | 0.03 |
| 81.4 nm | – | 98.8% | – | – | – | CCCCCCCCCOC(=O)CCCCCCCN(CCCCCCCC(=O)OC(CCCCCCCC)CCCCCCCC)CCCn1cc(CO)nn1 [Compound 218, Heptadecan-9-yl 8-((3-(4-(hydroxymethyl)-1H-1,2,3-triazol-1-yl)propyl)(8-(nonyloxy)-8-oxooctyl)amino)octanoate] | – | – | – | – | – | >0.01 |
